According to patent publication US11667602B2, “Compounds and their use” (AstraZeneca AB, priority 2020, dated 2023):
Values after ≈ are worked out from the molar mass of the structure shown.

Experiments:
[1] = Human Plasma Protein Binding (Test B); format: in vitro ADME; conditions: fraction unbound (fu)
In short: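 Human plasma protein binding run per the published Wernevik et al. (2020) integrated DMPK panel protocol. Values are fraction unbound (fu, % free); repeat runs averaged arithmetically.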

[2] = Human Liver Microsomal Stability (Test C); format: in vitro ADME; conditions: human, liver microsomes
In short: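 Human liver microsome incubation per the Wernevik et al. integrated DMPK panel protocol. Intrinsic clearance reported as CLint in μl/min/mg protein, averaged arithmetically over repeat runs.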

[3] = Human Hepatocyte Stability (Test D); format: in vitro ADME; conditions: human, cryopreserved pooled human hepatocytes (LiverPool 10-Donor), geometric mean if run multiple times
In short: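 Pooled 10-donor cryopreserved human hepatocytes (≥80% viable) in L-15 medium at 0.25×10^6 cells per 0.25 mL well. Compound added from 100 μM acetonitrile solution; incubated at 37 °C with shaking, acetonitrile-quenched, LC-MS analysed. Clint (μL/min/10^6 cells) from ln % parent vs time slope; geometric mean of repeat runs.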

[4] = Rat Hepatocyte Stability (Test E); format: in vitro ADME; conditions: rat, hepatocytes, geometric mean if run multiple times
In short: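 Run per the published AstraZeneca-type rat hepatocyte stability protocol (Wernevik et al. panel). Values are mean intrinsic clearance, Clint in μl/min/10^6 cells; geometric mean used for repeated runs.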

Solubility (Test F) = format: physicochemical; conditions: arithmetic mean if run multiple times
Description: The assay was conducted according to the Solubility Assay described in pages 164-167 of Wernevik, J. et al., “A Fully Integrated Assay Panel for Early Drug Metabolism and Pharmacokinetics Profiling”, Assay and Drug Development Technologies, 2020, 18(4), 157-179. Data are reported in Table 36 as solubility ([…]. Where the assay was run multiple times for the same compound, the arithmetic mean is reported.

human RXFP1 = biological target: T1, human RXFP1 (Homo sapiens, UniProt Q9HBX9); assay: RXFP1 Hu cAMP (Test A); format: cell-based; parameters: expressed in transfected cells; host or cells: Jump-In T-REx CHO-K1 cells (ThermoFisher), induced with 10 ng/ml doxycycline for 24 h; conditions: RXFP1 Hu cAMP; for EC50: read-out: Test A EC50
T1 sequence (Q9HBX9 1-757): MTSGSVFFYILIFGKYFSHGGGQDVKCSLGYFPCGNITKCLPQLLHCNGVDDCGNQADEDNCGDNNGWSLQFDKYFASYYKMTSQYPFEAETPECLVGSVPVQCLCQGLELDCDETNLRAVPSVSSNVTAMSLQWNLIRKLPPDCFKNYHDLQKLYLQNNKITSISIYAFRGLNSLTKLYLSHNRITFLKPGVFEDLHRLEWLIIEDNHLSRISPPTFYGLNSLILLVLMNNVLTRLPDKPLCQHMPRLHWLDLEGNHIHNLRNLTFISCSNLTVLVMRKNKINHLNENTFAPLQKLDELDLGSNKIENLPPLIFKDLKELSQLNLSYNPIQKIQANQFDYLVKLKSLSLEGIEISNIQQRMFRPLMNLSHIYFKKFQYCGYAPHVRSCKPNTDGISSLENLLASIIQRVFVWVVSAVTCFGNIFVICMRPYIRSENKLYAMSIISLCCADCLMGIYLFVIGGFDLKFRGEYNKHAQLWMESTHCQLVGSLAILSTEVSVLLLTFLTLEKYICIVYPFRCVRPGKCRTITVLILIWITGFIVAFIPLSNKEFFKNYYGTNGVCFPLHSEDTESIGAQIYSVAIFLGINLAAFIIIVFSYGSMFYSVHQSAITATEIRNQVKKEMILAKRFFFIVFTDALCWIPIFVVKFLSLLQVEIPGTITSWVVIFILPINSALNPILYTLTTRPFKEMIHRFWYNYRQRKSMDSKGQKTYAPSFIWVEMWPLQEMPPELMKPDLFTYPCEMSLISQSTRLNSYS
In short: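 CHO-K1 (Jump-In T-REx), RXFP1 induced w/ 10 ng/ml doxycycline 24 h, cryopreserved. 0.5 mM IBMX final. cAMP by HTRF, 2 h RT, std curve.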

| Compound | Test B Human Plasma Protein Binding (% free) [1] [% free] | microsomal CLint [2] [µL/min/mg] | hepatocyte CLint at 1 µM [3] [µL/min/1e6 cells] | hepatocyte CLint [4] [µL/min/1e6 cells] | solubility (Solubility (Test F)) [µM] | Test A Sinf (human RXFP1) [%] | EC50 (human RXFP1) [µM] |
| --- | --- | --- | --- | --- | --- | --- | --- |
| COc1cc(F)c(O[C@H]2CC[C@@](C)(C(=O)O)CC2)cc1C(=O)N[C@@H]1[C@H]2CC[C@H](C2)[C@@H]1C(=O)N[C@H](C)C1(C)CC1 (racemic) [Example 39] | 4.8 | 24 | 8.2 | 59 | 980 (≈ 534 µg/mL) | 96 | 0.74 |
| COc1cc(-c2cc(C(=O)N[C@H]3[C@@H](C(=O)Nc4cccc(S(=O)(=O)C(F)(F)F)c4)[C@@H]4C=C[C@H]3C4)c(OC)cc2F)ccc1C(=O)O (racemic) [Example 226, rac-2′-Fluoro-3,4′-dimethoxy-5′-(((1R,2R,3S,4S)-3-((3-((trifluoromethyl)sulfonyl)phenyl)carbamoyl)bicyclo[2.2.1]hept-5-en-2-yl)carbamoyl)-[1,1′-biphenyl]-4-carboxylic acid] | 0.62 | 12 | 11 | 16 | 870 (≈ 576 µg/mL) | 105 | 0.3 |
| COc1cc(F)c(-c2ccc(F)c(C(=O)O)c2)cc1C(=O)N[C@H]1[C@@H](C(=O)Nc2cccc(S(=O)(=O)C(F)(F)F)c2)[C@@H]2C=C[C@H]1C2 (racemic) [Example 231] | <0.31 | < 3 | 7.7 | 13 | 17 (≈ 11.1 µg/mL) | 112 | 0.48 |
| COc1cc(F)c(-c2ccc(CC(=O)O)cc2)cc1C(=O)N[C@H]1[C@@H](C(=O)Nc2cccc(S(=O)(=O)C(F)(F)F)c2)[C@@H]2C=C[C@H]1C2 (racemic) [Example 234] | <0.30 | 4.7 | 6.5 | 9.3 | 690 (≈ 446 µg/mL) | 110 | 0.088 |
| COc1cc(F)c(-c2cccc(CC(=O)O)c2)cc1C(=O)N[C@H]1[C@@H](C(=O)Nc2cccc(S(=O)(=O)C(F)(F)F)c2)[C@@H]2C=C[C@H]1C2 (racemic) [Example 281] | 0.31 | 5.5 | 5 | 9.1 | 11 (≈ 7.11 µg/mL) | 170 | 0.87 |
| COc1cc(F)c(-c2ccc(C3(C(=O)O)CC3)cc2)cc1C(=O)N[C@H]1[C@@H](C(=O)Nc2cccc(S(=O)(=O)C(F)(F)F)c2)[C@@H]2C=C[C@H]1C2 (racemic) [Example 288] | <0.32 | 5.1 | 5 | 21 | 24 (≈ 16.1 µg/mL) | 107 | – |
| COc1cc(F)c(-c2ccc(C[C@@H](C(=O)O)N(C)C)cc2)cc1C(=O)N[C@@H]1[C@H]2CC[C@H](C2)[C@@H]1C(=O)Nc1cccc(S(=O)(=O)C(F)(F)F)c1 (racemic) [Example 289, (S)-2-(Dimethylamino)-3-(2′-fluoro-4′-methoxy-5′-(((1RS,2SR,3RS,4SR)-3-((3-((trifluoromethyl)sulfonyl)phenyl)carbamoyl)bicyclo[2.2.1]heptan-2-yl)carbamoyl)-[1,1′-biphenyl]-4-yl)propanoic acid] | 1 | 21 | 7.2 | 11 | 36 (≈ 25.4 µg/mL) | 112 | 0.47 |
| COc1cc(F)c(-c2ccc(C(=O)O)cc2)cc1C(=O)N[C@H]1[C@@H](C(=O)Nc2ccc(F)c(S(=O)(=O)C(F)(F)F)c2)[C@@H]2C=C[C@H]1C2 (racemic) [Example 296, rac-2′-Fluoro-5′-(((1R,2R,3S,4S)-3-((4-fluoro-3-((trifluoromethyl)sulfonyl)phenyl)carbamoyl)bicyclo[2.2.1]hept-5-en-2-yl)carbamoyl)-4′-methoxy-[1,1′-biphenyl]-4-carboxylic acid] | <0.32 | 15 | 22 | 17 | 640 (≈ 416 µg/mL) | 98 | 0.22 |
| COc1cc(F)c(-c2cccc(C(=O)O)c2)cc1C(=O)N[C@H]1[C@@H](C(=O)Nc2ccc(F)c(S(=O)(=O)C(F)(F)F)c2)[C@@H]2C=C[C@H]1C2 (racemic) [Example 297] | <0.33 | 9.1 | 9.4 | 12 | 8 (≈ 5.2 µg/mL) | 98 | 0.12 |
| COc1cc(F)c(-c2ccc(C(=O)O)cc2)cc1C(=O)N[C@H]1[C@@H](C(=O)Nc2cc(F)cc(C(F)(F)F)c2)[C@@H]2C=C[C@H]1C2 (racemic) [Example 308] | 0.16 | 4.9 | 14 | 33 | > 1000 | 109 | – |
| COc1cc(F)c(O[C@H]2CC[C@@](C)(C(=O)O)CC2)cc1C(=O)N[C@@H]1[C@H](O)CC[C@@H]1C(=O)Nc1cccc(S(=O)(=O)C(F)(F)F)c1 (racemic) [Example 396, (1R,4s)-4-(2-Fluoro-5-(((1SR,2RS,5SR)-2-hydroxy-5-((3-((trifluoromethyl)sulfonyl)phenyl)carbamoyl)cyclopentyl)carbamoyl)-4-methoxyphenoxy)-1-methylcyclohexane-1-carboxylic acid] | 5 | 47 | 16 | 16 | 21 (≈ 13.9 µg/mL) | 91 | 0.64 |
| COc1cc(F)c(Oc2ccc(C(=O)O)cc2)cc1C(=O)N[C@H]1[C@@H](C(=O)Nc2cccc(S(=O)(=O)C(F)(F)F)c2)[C@@H]2C=C[C@H]1C2 (racemic) [Example 484] | <0.31 | 9.4 | 7.2 | 13 | 400 (≈ 259 µg/mL) | 101 | 0.25 |
| COc1cc(F)c(O[C@H]2CC[C@@H](C(=O)O)CC2)cc1C(=O)N[C@@H]1CC(F)(F)C[C@@H]1C(=O)Nc1ccc(F)c(C(F)(F)F)c1 (racemic) [Example 493] | 1.3 | < 3 | 2.4 | 4 | 38 (≈ 23.6 µg/mL) | 108 | 0.42 |
| COc1cc(C#N)c(O[C@H]2CC[C@@](C)(C(=O)O)CC2)cc1C(=O)N[C@H]1C(C(=O)NCC(C)(C)C)[C@@H]2CC[C@H]1C2 (stereo partly drawn) [Example 621, (1S,4s)-4-(2-cyano-4-methoxy-5-(((1S,2R,3S,4R)-3-(neopentylcarbamoyl)bicyclo[2.2.1]heptan-2-yl)carbamoyl)phenoxy)-1-methylcyclohexane-1-carboxylic acid] | 12 | < 3 | < 1.2 | 15 | 910 (≈ 491 µg/mL) | – | – |
| COc1cc(C#N)c(O[C@H]2CC[C@@](C)(C(=O)O)CC2)cc1C(=O)N[C@@H]1[C@H]2CC[C@H](C2)[C@@H]1C(=O)NC12CC(F)(C1)C2 [Example 622] | 17 | < 5.1 | 1.7 | 11 | > 860 | – | – |
